Measurements as given in publication PMC7996082, “The translocator protein ligands as mitochondrial functional modulators for the potential anti-Alzheimer agents” (Journal of Enzyme Inhibition and Medicinal Chemistry, 2021).
Like-named read-outs stand apart in the source and are kept apart here.

What was measured:
TSPO = conditions: cited from earlier work
[1] = MTT assay: HT22 cell viability with compound alone; assay type: cell-based, mouse; conditions: mouse, HT22 cells; HT22 cell viability after 24 h of treatment with 5 μM compound, no Aβ
Description: (§1) To a clear 96-well plate (FALCON), the cultured HT-22 cells were seeded in a number of 5,000 per well 24 h prior to the assay. A solution of each test compound (5 µM, 25 µL) was added to each well. After 24 h of incubation at 37 °C, the cells were treated with a 10 µL of MTT solution (3–(4,5-dimethylthiazol-2-yl)-2,5-diphenyltetrazolium bromide, Sigma-Aldrich), incubated for 2 h at 37 °C, and were treated with 135 µL of MTT solubilising solution (10% Triton-X 100 in isopropanol with 0.1 M HCl) for 2 h at 37 °C. The % values of cell viability were determined by using the optical density (OD) values at 560 nm, and normalised by taking the vehicle control (5 µM of DMSO) as […].

[2] = tested on: HT22 cells treated with Aβ; assay: Cellular ROS assay (DCFDA): inhibition of Aβ-induced ROS generation; assay type: cell-based, mouse; conditions: for inhibition at 5 µM: Mus musculus, HT-22, 5 μM compound; for ROS Inhibition (%): 5 μM compound
Description: Among 56 compounds, 23 compounds were selected and further tested for the luciferase-based ATP assay. […] Thus, we chose these two compounds and further evaluated their biological activity by measuring cell viability and reactive oxygen species (ROS) production. The effects on cell viability of each compound under Aβ-induced cytotoxicity were determined by measuring the metabolic activity of NAD(P)H-dependent cellular oxidoreductases using the 3–(4,5-dimethylthiazol-2-yl)-2,5-diphenyl-tetrazolium bromide (MTT) dye. To measure cellular ROS levels, we used a fluorescence indicator, 2′,7′-dichlorofluorescein diacetate (DCFDA), and calculated the percent inhibition of ROS generation by applying the same method used for MTT assays. Compound 7 inhibited Aβ-induced ROS generation (97% at 5 µM) almost to the level of the untreated control (Table 1). […] On the basis of the in vitro activity, we selected compound 7 as the best hit from the initial screening library.

HT22 cells = assay: MTT assay: HT22 cell viability with compound alone; assay type: cell-based, mouse; conditions: HT22 cell viability after 24 h of treatment with 5 μM compound, no Aβ
Description: as §1

[3] = tested on: transgenic AD model mice (APPswe/PSEN1dE9); assay: Y-maze spontaneous alternation test in transgenic AD model mice; assay type: in vivo, mouse; conditions: Tg APPswe/PSEN1dE9 mice, 30 mg/kg daily, 1 month, PO
[4] = tested on: transgenic AD model mice (APPswe/PSEN1dE9); assay: Contextual fear conditioning test in transgenic AD model mice; assay type: in vivo, mouse; conditions: Tg AD model mice, 30 mg/kg daily, 1 month, PO; 30 mg/kg
Description: (§2) The acute AD mice model was prepared by administration of Aβ1-42 solution (10% DMSO/90% PBS) to male ICR mice (6 weeks old, 30 − 33 g) via intracerebroventricular (ICV) injection (Aβ1-42 dose: 500 pmol/mouse) as described previously. The wild type mice (B6C3F1) and double APP/PS1 transgenic mice (Tg AD mice model; APPswe/PSEN1dE9) were purchased from Jackson Laboratory (Bar Harbour, ME, USA). The Tg AD model mice were 11 months old at the beginning of the behaviour test, and were housed for 1 month in a room under controlled temperature and fed ad libitum. The behaviour tests were conducted during daytime in air-controlled and soundproof experiment room. The animal experiments were abided by the guidelines of the Institutional Animal Care and Use Committee of Korea Institute of Science and Technology.
To the Tg mice of the AD model (n = 7 per group), each test compound (30 mg/kg) was orally administrated daily for 1 month. […] Freezing response was measured by the fear conditioning system without application of CS or US.
In addition, we assessed recovery effects of compound 7 by performing contextual fear conditioning tests.[40] Healthy mice show higher number of total freezing, which is an index of fear learning and memory of rodents; therefore, the number of total freezing responses under fear-relevant stimuli was measured with the compound-treated Tg AD model mice. […]

[5] = tested on: acute AD model mice (Aβ1-42 ICV injected ICR mice); assay: Y-maze spontaneous alternation test in acute AD model mice; assay type: in vivo, mouse; conditions: 30 mg/kg daily, 6 days, i.p.
Description: as §2
To the mice of the acute AD model (n = 7 per group), each test compound (test compound in 20% cyclodextrin, 30 mg/kg) was […] injected daily for 6 days. The Y-maze spontaneous alternation test was performed 1 day after the administration of each test compound. The Y maze was made of three equally spaced black plastic arms (40 L × 10 W × 12 H cm) positioned at an equal angle. Each mouse was placed at the end of one arm and allowed to move freely through the maze for 8 min, and the sequence of arm entries was recorded. The arm entry of the mouse was counted when the all four limbs were within an arm. A set of entries into all three arms is considered as a spontaneous alternation. The spontaneous alternation (%) was calculated by the following equation: Spontaneous alternation (%)=100x[number of alternations/(total number of arm entries – 2)]
We evaluated in vivo activity of 7 and 14 in an acute AD mouse model. The acute AD model mice were generated by the administration of Aβ1-42 peptide (500 pmol) according to the previously reported method, and each compound (30 mg/kg daily) was administered intraperitoneally for 6 days. Piracetam (30 mg/kg daily) was also administered in parallel for comparison. The Y-maze spontaneous alternation tests were performed to measure the recovery of learning and memory deficit in acute AD model mice[38]^,[39]. […] We believe that the treatment of 7 was beneficial for ameliorating Aβ-induced cognitive impairments.

[6] = tested on: HT-22 (mouse hippocampal cells) cells treated with Aβ; assay: JC-1 assay: recovery of mitochondrial membrane potential (ΔΨm) after Aβ; assay type: cell-based; conditions: 5 μM compound, 5 μM Aβ, HT22 cells; 0% = Aβ-induced damaged condition, 100% = normal condition
Description: Thirty thousand HT-22 cells per well were seeded into a clear 96-well plate (FALCON) at 200 µL per well one day prior to assay. 750 mM of JC-1 (Stratagene) in DMSO stock solution was dissolved into phenol red-free Opti-MEM (GIBCO) medium to make final concentration of 7.5 mM JC-1 per well. Medium was removed from the plate, and 100 µL per well of JC-1 was added. The sample plates were incubated for 1 h and 15 min at 37 °C and washed twice with 100 µL per well of PBS. Subsequently, cells were treated with a 25 µL solution of each compound at 10 µM in Opti-MEM and incubated at 37 °C for 10 min followed by addition of a 25 µL of Aβ (American peptide, 1-42) solution at 10 µM. Fluorescence was measured at every one hour for three hours at ex/em 530 nm/580 nm (“red”) and ex/em 485 nm/530 nm (“green”) by using the Flexstation® 3 (Molecular Devices, USA) reader. The ratio of green to red fluorescence was calculated and normalised by taking the percent changes using vehicle control as 100%.
The selected 56 compounds were purchased and tested by in vitro cell-based assays. Four different cell-based assays (JC-1, MTT, ATP production, and cellular ROS assays) were carried out sequentially. First, the JC-1 assay was performed to screen all 56 compounds, VH001–VH056 (Supplementary Table S1). Since mitochondrial membrane depolarisation is one of the distinct signs of mPTP opening, the mitochondrial uptake of a fluorescent JC-1 dye (5,59,6,69-tetrachloro-1,19,3,39-tetraethylbenzimidazolocarbocyanine iodide) was measured to evaluate the effects of each compound on the mitochondrial membrane potential (ΔΨm). HT22 cells, a mouse hippocampal cell line, were treated with 5 µM of Aβ, incubated with each compound at the same concentration of 5 µM, and subsequently treated with JC-1. On the basis of changes in the red/green fluorescence intensity ratio between the cells treated with Aβ and control, the percent recovery of ΔΨm for each compound was calculated and normalised to the ΔΨm of healthy cells as 100%.
Compd Structure ∆Ψm at 5 Compd Structure ∆Ψm at 5 […]
a After the treatment of each compound (5 μM) and Aβ (5 μM) in HT22 cell, the increase of fluorescence ratio (green/red) was measured and normalized by taking the change of the ratio between 0% (Aβ-induced damaged condition) and 100% (normal condition in the absence of Aβ).

## CCCCCCN(CCCCCC)C(=O)Cc1c(-c2ccc(F)cc2)[nH]c2ccccc12 [Compound 1, 2–(2-(4-fluorophenyl)-1H-indol-3-yl)-N,N-dihexylacetamide]
TSPO; TSPO binding affinity ref 29
  Ki: 3.25 nM

## CCCCN(CCCC)C(=O)Cc1c(-c2ccc(Cl)cc2)nc2c(Cl)cc(Cl)cn12 [Compound 2, N,N-dibutyl-2–(6,8-dichloro-2–(4-chloro-phenyl)imidazo[1,2-a]pyridin-3-yl)acetamide]
TSPO; TSPO binding affinity ref 30
  Ki: 2.68 nM

## CC(=O)N(Cc1ccccc1OC(C)C)c1ccc(Cl)cc1Oc1ccccc1 [Compound 3, N-(4-chloro-2-phenoxyphenyl)-N-(2-isopropoxybenzyl)acetamide]
TSPO; TSPO binding affinity ref 31
  IC50: 0.92 nM

## COc1ccc(OC)c(CN(C(C)=O)c2cc(F)ccc2Oc2ccccc2)c1 [Compound 4, N-(2,5-dimethoxybenzyl)-N-(5-fluoro-2-phenoxyphenyl)acetamide]
TSPO; TSPO binding affinity ref 31
  IC50: 1.6 nM

## CN1C(=O)CN=C(c2ccc(Cl)cc2)c2cc(Cl)ccc21 [Compound 5, 7-chloro-5–(4-chlorophenyl)-1-methyl-1,3-dihydro-2H-benzo[e][1,4]diazepin-2-one]
TSPO; TSPO binding affinity ref 32
  Ki: 1.02 nM

## COc1ccc(CNC(=O)C(c2cccnc2)N(C(=O)c2csnn2)c2ccc(C(C)(C)C)cc2)cc1 (centres unmarked) [Compound 8]
[1]
  viability at 24 h, 5 µM: 34%
[2]
  inhibition at 5 µM: -10%

## CCOc1ccc(-n2c(SC)nc3sc4c(c3c2=O)CCN(C(C)=O)C4)cc1 [Compound 10]
HT22 cells
  MTT Viability (%): 87%
[2]
  ROS Inhibition (%): −177%

## CCOc1ccc(-n2c(SCC(C)C)nc3sc4c(c3c2=O)CCN(C(C)=O)C4)cc1 [Compound 11]
[2]
  ROS Inhibition (%): −234%

## NC(=O)CN1CCCC1=O [Piracetam, piracetam, reference compound]
[3]
  Recovery of Y-maze spontaneous alternations: 33%
[4]
  Contextual fear conditioning: percent recovery of freezing: −2%
[1]
  viability at 24 h, 5 µM: 132%
[5]
  Recovery of Y-maze spontaneous alternations: 20%
[2]
  inhibition at 5 µM: 129%

## CCc1ccc(-c2cc(C)no2)cc1S(=O)(=O)Nc1cc(OC)cc(OC)c1 [VH021]
[6]
  Recovery of ΔΨm (%): 42%

## CCOc1ccc(-c2cc(C(=O)NCCCN(CC)CC)c3ccccc3n2)cc1 [VH022]
[6]
  Recovery of ΔΨm (%): 36%

## CCN1CCCC1CNC(=O)c1cc(Nc2ccc(C)c(C)c2)nc2ccccc12 (centres unmarked) [VH023]
[6]
  Recovery of ΔΨm (%): 62%

## CCOc1ccc(-c2cc(C(=O)NCCCN(CC)c3ccccc3)c3ccccc3n2)cc1 [VH024]
[6]
  Recovery of ΔΨm (%): 74%

## CCOc1ccc(-c2cc(C(=O)NCc3cccc(OC)c3)c3ccccc3n2)cc1 [VH025]
[6]
  Recovery of ΔΨm (%): 12%

## CCN(CCNC(=O)c1cc(-c2cccnc2)nc2ccccc12)c1ccccc1 [VH026]
[6]
  Recovery of ΔΨm (%): 49%

## CC(C)CN(CCCNC(=O)c1cc(Nc2ccccc2)nc2ccccc12)CC(C)C [VH027]
[6]
  Recovery of ΔΨm (%): 25%

## COc1ccc(CNC(=O)c2cc(OCc3ccc(C)cc3)nc3ccccc23)c(OC)c1 [VH028]
[6]
  Recovery of ΔΨm (%): 51%

## CCc1ccc(Nc2cc(C(=O)NCCc3cccc(C)c3)c3ccccc3n2)cc1 [VH029]
[6]
  Recovery of ΔΨm (%): 18%

## CCOc1ccc(-c2cc(C(=O)NCC(C)CN(CC)CC)c3ccccc3n2)cc1 (centres unmarked) [VH030]
[6]
  Recovery of ΔΨm (%): 60%
